This is an account of results in ChEMBL document CHEMBL5726081, “Therapeutic inhibitory compounds” (2017).

In general, IC50 refers to the midpoint of a concentration-inhibition curve.

The target in the assay is Plasma kallikrein (Homo sapiens, UniProt P03952). Nature of the assay: In Vitro Enzyme Inhibition Assay: The ability of the compounds disclosed herein to inhibit human plasma kallikrein activity was quantified according to the procedures below.A 10 mM solution of the test compound was made in DMSO. […] A control tube containing only DMSO is included. […] 50 μL was removed from this mixture and placed into duplicate wells on a Microfluor 1Black U-bottom microtiter plate (Thermo Scientific). This plate was incubated for 5 minutes at 37° C. To each well, 50 μL of pre-warmed 2×PFR-AMC was added to start the enzymatic reaction. Cleavage of PFR-AMC was monitored in a Biotek Synergy H4 reader set at 37° C. Readings are taken every 43 seconds for 1 hour.
Plasma kallikrein, sequence (P03952 20-390 limits assumed): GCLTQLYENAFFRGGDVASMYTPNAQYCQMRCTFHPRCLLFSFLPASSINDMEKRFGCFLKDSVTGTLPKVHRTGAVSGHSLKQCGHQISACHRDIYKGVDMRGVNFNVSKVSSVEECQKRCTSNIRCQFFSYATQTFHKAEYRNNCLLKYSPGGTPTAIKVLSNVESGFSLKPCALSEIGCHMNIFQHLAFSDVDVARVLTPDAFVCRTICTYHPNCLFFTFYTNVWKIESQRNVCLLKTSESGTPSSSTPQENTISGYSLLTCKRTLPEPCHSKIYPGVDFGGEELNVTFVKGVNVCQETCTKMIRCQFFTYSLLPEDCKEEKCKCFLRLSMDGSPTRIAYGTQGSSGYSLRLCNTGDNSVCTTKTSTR
Plasma kallikrein, sequence (P03952 391-638 limits assumed): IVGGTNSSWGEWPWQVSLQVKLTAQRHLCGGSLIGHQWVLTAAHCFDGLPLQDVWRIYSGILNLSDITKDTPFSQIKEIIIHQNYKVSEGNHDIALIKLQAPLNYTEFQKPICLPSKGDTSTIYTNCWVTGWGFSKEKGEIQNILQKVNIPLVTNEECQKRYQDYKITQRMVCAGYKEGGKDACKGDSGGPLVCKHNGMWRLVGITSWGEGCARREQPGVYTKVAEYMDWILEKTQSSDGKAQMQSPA

The structures appear in SMILES notation. Bounds are passed on as bounds.

Turning to `N#Cc1ccc2cc(Cc3cc(C(=O)NCc4cc5c(Cl)c[nH]c5cc4F)ccn3)ccc2n1`, the IC50 is below 100 nM.
As for `Cc1nc(N)ccc1CNC(=O)c1ccnc(Cc2cc(C#N)c3ncc(Cl)cc3c2)c1`, the figure is below 100 nM.
